Measured values published in patent US10189809B2, “SGC stimulators” (Ironwood Pharmaceuticals, Inc., priority 2010, dated 2019).

Assays:
[1] = target: T1, Human soluble guanylate cyclase enzyme (hsGC) (Homo sapiens (Human), UniProt Q02108+Q02153); experiment: Purified human sGC enzyme activity assay; type: biochemical; settings: for sGC Enzyme (specific activity at 10 μM) / sGC Enzyme (fold increase at 10 μM without SNP): 10 μM compound; for sGC Enzyme (specific activity at 30 μM) / sGC Enzyme (fold increase at 30 μM without SNP) / sGC Enzyme (fold increase at 30 μM): 30 μM compound; for sGC Enzyme (fold increase at 30 μM): without the addition of SNP
T1 sequence (Q02153 whole entry): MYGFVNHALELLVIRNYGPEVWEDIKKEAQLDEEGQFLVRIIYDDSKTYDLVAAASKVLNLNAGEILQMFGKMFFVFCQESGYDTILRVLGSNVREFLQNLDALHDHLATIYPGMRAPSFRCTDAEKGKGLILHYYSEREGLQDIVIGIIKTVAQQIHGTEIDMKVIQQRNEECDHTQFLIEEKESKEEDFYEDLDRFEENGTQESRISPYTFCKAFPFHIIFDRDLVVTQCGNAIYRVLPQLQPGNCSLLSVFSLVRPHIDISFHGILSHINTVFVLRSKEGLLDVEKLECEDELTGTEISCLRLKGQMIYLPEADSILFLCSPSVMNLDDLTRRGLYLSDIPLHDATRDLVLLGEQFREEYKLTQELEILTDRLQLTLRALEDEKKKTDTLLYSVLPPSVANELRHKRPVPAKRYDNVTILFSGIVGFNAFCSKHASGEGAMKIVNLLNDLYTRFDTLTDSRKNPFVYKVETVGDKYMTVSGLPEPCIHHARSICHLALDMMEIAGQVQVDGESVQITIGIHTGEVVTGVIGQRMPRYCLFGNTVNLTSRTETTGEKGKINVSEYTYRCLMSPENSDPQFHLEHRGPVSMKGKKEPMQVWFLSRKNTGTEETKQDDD
T1 sequence (Q02108 whole entry): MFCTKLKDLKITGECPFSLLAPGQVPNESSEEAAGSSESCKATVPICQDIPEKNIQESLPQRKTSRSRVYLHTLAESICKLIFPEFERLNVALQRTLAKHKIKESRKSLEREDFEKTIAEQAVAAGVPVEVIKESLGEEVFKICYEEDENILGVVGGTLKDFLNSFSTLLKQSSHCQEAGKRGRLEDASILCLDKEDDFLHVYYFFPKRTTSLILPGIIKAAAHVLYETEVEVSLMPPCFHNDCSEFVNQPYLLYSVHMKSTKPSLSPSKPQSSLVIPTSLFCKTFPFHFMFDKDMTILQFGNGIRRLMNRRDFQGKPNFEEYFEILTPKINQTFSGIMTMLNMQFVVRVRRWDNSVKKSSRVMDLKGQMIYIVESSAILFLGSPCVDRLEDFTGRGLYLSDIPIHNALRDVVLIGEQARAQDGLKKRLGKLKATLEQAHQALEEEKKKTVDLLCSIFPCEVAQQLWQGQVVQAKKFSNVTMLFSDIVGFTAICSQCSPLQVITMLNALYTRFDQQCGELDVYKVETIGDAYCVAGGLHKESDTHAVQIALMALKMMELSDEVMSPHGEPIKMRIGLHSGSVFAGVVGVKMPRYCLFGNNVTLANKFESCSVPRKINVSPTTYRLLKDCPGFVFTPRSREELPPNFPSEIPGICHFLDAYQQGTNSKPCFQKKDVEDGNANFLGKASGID
Experimental: (§1) Human soluble guanylate cyclase enzyme (hsGC) obtained from Enzo Inc. (P/N: ALX-201-177) was used to evaluate the activity of test compounds. The assay reactions contained 0.1 M Tris (pH 8.0), 0.5 mg/mL BSA (pH 8.0), 2 mM DTT, 2 mM MgCl2, 300 μM GTP, 1 mM 3-isobutyl-1-methylxanthine (IBMX) and 5 ng human soluble guanylate cyclase enzyme. Test compounds in DMSO were then added (2 μL, 10 or 30 μM final concentration) and incubated (200 μL, 96-well plate format) at 37° C. for 30 minutes. The controls were carried out using 2 μL DMSO. After the 30 minute incubation, the reaction was stopped with the addition of 200 μL of cold methanol. The plate was then centrifuged at 3,200 rpm for 10 minutes at room temperature. Supernatants (200 μL) were collected and transferred to a new 96 well plate for analysis.
(§2) An 8 point cGMP (Sigma-Aldrich P/N: G6129) standard curve was prepared in assay buffer ranging from 0.156-20 μM. Samples for the cGMP standard curve were then diluted with an equal volume of methanol resulting in final cGMP concentrations of 0.078-10 μM.
(§3) The cGMP standard curve was generated using GraphPad Prism Software.
(§4) Calculations: Specific Activity was determined by the amount of cGMP formed (nmoles) per mg of sGC per min. Enzyme “fold-change” was calculated by dividing Specific Activity for test compounds by Specific Activity of DMSO controls.

[2] = target: T1, Human soluble guanylate cyclase enzyme (hsGC); experiment: Purified human sGC enzyme synergy assay in the presence of 1 μM sodium nitroprusside (SNP); type: biochemical; settings: for sGC Enzyme (fold increase at 10 μM with SNP): 10 μM compound; for sGC Enzyme (fold increase at 30 μM with SNP): 30 μM compound
Experimental: as §1, §2, §3, §4
Enzyme assays were performed as described above, but was done in the presence of 1 μM sodium nitroprusside (SNP).

[3] = target: soluble guanylate cyclase (sGC) (Homo sapiens (Human), UniProt Q02108+Q02153); experiment: sGC-HEK-cGMP assay run with SNP incubation (HEK WC assay); type: cell-based; settings: for Emax at 10 µM: read-out: HEK WC Assay (% Emax at 10 uM/with 10 uM SNP); for Emax at 30 µM: read-out: HEK WC Assay (% Emax at 30 uM/with 10 uM SNP)
soluble guanylate cyclase (sGC), sequence (Q02153 whole entry): as the sequence (Q02153 whole entry) above
soluble guanylate cyclase (sGC), sequence (Q02108 whole entry): as the sequence (Q02108 whole entry) above
Summary of the method: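 EC50 values derive from concentration-response curves of intracellular cGMP in HEK293 cells, which express sGC endogenously. Compound and sodium nitroprusside were co-incubated 10 min at 37 °C after a 15-min 0.5 mM IBMX step, with 0.1 M HCl lysis and 1% DMSO vehicle.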

| Compound | sGC Enzyme (specific activity at 10 μM) [1] | sGC Enzyme (fold increase at 10 μM without SNP) [1] | sGC Enzyme (specific activity at 30 μM) [1] | sGC Enzyme (fold increase at 30 μM without SNP) [1] | sGC Enzyme (fold increase at 10 μM with SNP) ([2]; with 1 μM SNP) | sGC Enzyme (fold increase at 30 μM with SNP) ([2]; with 1 μM SNP) | Emax at 10 µM [3] [%] | Emax at 30 µM [3] [%] | sGC Enzyme (fold increase at 30 μM) [1] | sGC Enzyme (fold increase at 30 μM with SNP) ([2]; with the addition of SNP) |
| --- | --- | --- | --- | --- | --- | --- | --- | --- | --- | --- |
| Fc1ccccc1Cn1nc(-c2ncccn2)cc1-c1ncccn1 [Compound I-13] | B (B = 50 to <100) | A (A = no increase to <2 fold increase) | C (C = 100 to <200) | A (A = no increase to <2 fold increase) | A (A = no increase to <2 fold increase) | A (A = no increase to <2 fold increase) | 0 to 10 | 0 to 10 | – | – |
| Fc1ccccc1Cn1nc(-c2ccccn2)cc1-c1csc2ccccc12 [Compound I-18] | C (C = 100 to <200) | A (A = no increase to <2 fold increase) | C (C = 100 to <200) | A (A = no increase to <2 fold increase) | A (A = no increase to <2 fold increase) | A (A = no increase to <2 fold increase) | – | – | – | – |
| Cc1cccc(-c2cc(-c3ccccn3)nn2Cc2ccccc2F)c1 [Compound I-22] | C (C = 100 to <200) | A (A = no increase to <2 fold increase) | C (C = 100 to <200) | B (B = 2 to <5 fold increase) | A (A = no increase to <2 fold increase) | A (A = no increase to <2 fold increase) | 0 to 10 | 0 to 10 | – | – |
| Cc1ccc(-c2cc(-c3ccccn3)nn2Cc2ccccc2F)cc1 [Compound I-23] | C (C = 100 to <200) | B (B = 2 to <5 fold increase) | D (D = 200 to <500) | B (B = 2 to <5 fold increase) | B (B = 2 to <5 fold increase) | B (B = 2 to <5 fold increase) | 0 to 10 | 0 to 10 | – | – |
| Cc1ccccc1-c1cc(-c2ccccn2)nn1Cc1ccccc1F [Compound I-24] | C (C = 100 to <200) | A (A = no increase to <2 fold increase) | C (C = 100 to <200) | A (A = no increase to <2 fold increase) | A (A = no increase to <2 fold increase) | A (A = no increase to <2 fold increase) | – | – | – | – |
| COc1cccc(-c2cc(-c3ccccn3)nn2Cc2ccccc2F)n1 [Compound I-25, 2-(1-(2-fluorobenzyl)-3-(pyridin-2-yl)-1H-pyrazol-5-yl)-6-methoxypyridine] | C (C = 100 to <200) | A (A = no increase to <2 fold increase) | D (D = 200 to <500) | A (A = no increase to <2 fold increase) | B (B = 2 to <5 fold increase) | C (C = 5 to <10 fold increase) | 0 to 10 | 10 to 20 | – | – |
| Fc1ccccc1Cn1nc(-c2ccccn2)cc1-c1cccs1 [Compound I-35] | D (D = 200 to <500) | B (B = 2 to <5 fold increase) | D (D = 200 to <500) | B (B = 2 to <5 fold increase) | B (B = 2 to <5 fold increase) | C (C = 5 to <10 fold increase) | 10 to 20 | 10 to 20 | – | – |
| COc1ccccc1-c1cc(-c2ccccn2)nn1Cc1ccccc1F [Compound I-36] | C (C = 100 to <200) | A (A = no increase to <2 fold increase) | C (C = 100 to <200) | A (A = no increase to <2 fold increase) | A (A = no increase to <2 fold increase) | A (A = no increase to <2 fold increase) | – | – | – | – |

Second part, the compound after the results:

| sGC Enzyme (specific activity at 10 μM) [1] | sGC Enzyme (fold increase at 10 μM without SNP) [1] | sGC Enzyme (specific activity at 30 μM) [1] | sGC Enzyme (fold increase at 30 μM without SNP) [1] | sGC Enzyme (fold increase at 10 μM with SNP) ([2]; with 1 μM SNP) | sGC Enzyme (fold increase at 30 μM with SNP) ([2]; with 1 μM SNP) | Emax at 10 µM [3] [%] | Emax at 30 µM [3] [%] | sGC Enzyme (fold increase at 30 μM) [1] | sGC Enzyme (fold increase at 30 μM with SNP) ([2]; with the addition of SNP) | Compound |
| --- | --- | --- | --- | --- | --- | --- | --- | --- | --- | --- |
| C (C = 100 to <200) | A (A = no increase to <2 fold increase) | C (C = 100 to <200) | A (A = no increase to <2 fold increase) | A (A = no increase to <2 fold increase) | A (A = no increase to <2 fold increase) | – | – | – | – | COc1ccccc1-c1cc(-c2ncccn2)nn1Cc1ccccc1F [Compound I-37] |
| C (C = 100 to <200) | A (A = no increase to <2 fold increase) | C (C = 100 to <200) | A (A = no increase to <2 fold increase) | A (A = no increase to <2 fold increase) | A (A = no increase to <2 fold increase) | – | – | – | – | COc1cccc(-c2cc(-c3ccccn3)nn2Cc2ccccc2F)c1 [Compound I-38] |
| C (C = 100 to <200) | A (A = no increase to <2 fold increase) | C (C = 100 to <200) | A (A = no increase to <2 fold increase) | A (A = no increase to <2 fold increase) | B (B = 2 to <5 fold increase) | 0 to 10 | 0 to 10 | – | – | COc1ccc(-c2cc(-c3ccccn3)nn2Cc2ccccc2F)cc1 [Compound I-40] |
| C (C = 100 to <200) | A (A = no increase to <2 fold increase) | C (C = 100 to <200) | A (A = no increase to <2 fold increase) | A (A = no increase to <2 fold increase) | A (A = no increase to <2 fold increase) | 0 to 10 | 0 to 10 | – | – | Fc1ccccc1Cn1nc(-c2ccccn2)cc1-c1nnn[nH]1 [Compound I-43] |
| C (C = 100 to <200) | A (A = no increase to <2 fold increase) | D (D = 200 to <500) | A (A = no increase to <2 fold increase) | A (A = no increase to <2 fold increase) | A (A = no increase to <2 fold increase) | 0 to 10 | 0 to 10 | – | – | Cc1nnc(-c2cc(-c3ccccn3)nn2Cc2ccccc2F)o1 [Compound I-46] |
| D (D = 200 to <500) | A (A = no increase to <2 fold increase) | D (D = 200 to <500) | B (B = 2 to <5 fold increase) | B (B = 2 to <5 fold increase) | B (B = 2 to <5 fold increase) | 0 to 10 | 0 to 10 | – | – | CC(C)c1cc(-c2ccccn2)nn1Cc1ccccc1F [Compound I-47] |
| – | – | – | – | – | – | – | – | C (C = 5 to <10 fold increase) | D (D = 10 to <30 fold increase) | Nc1nc(-c2cc(-c3ccon3)n(Cc3ccccc3F)n2)ncc1-c1ccsc1 [Compound I-121] |
| – | – | – | – | – | – | – | – | B (B = 2 to <5 fold increase) | D (D = 10 to <30 fold increase) | Nc1nc(-c2cc(-c3ccon3)n(Cc3ccccc3F)n2)ncc1N1CCCC1 [Compound I-129] |
| – | – | – | – | – | – | – | – | C (C = 5 to <10 fold increase) | D (D = 10 to <30 fold increase) | N#Cc1cnc(-c2cc(-c3ccon3)n(Cc3ccccc3F)n2)nc1N [Compound I-130] |
| – | – | – | – | – | – | – | – | C (C = 5 to <10 fold increase) | C (C = 5 to <10 fold increase) | Nc1nc(-c2cc(-c3ccon3)n(Cc3ccccc3F)n2)ncc1N1CCOCC1 [Compound I-139] |
